Patent US11634381B2, “RUNX2 transcription factor inhibitors and uses thereof” (University of Maryland, Baltimore, priority 2015, dated 2023)
Where a SMILES comes first, the peptide text is derived from it. The star is where a group is joined. Cbz = O=C(OCc1ccccc1)*

Columns and labels:
MCF7 RUNX2 Tet.OFF cells = assay: Suspension culture tumorsphere formation; type: cell-based, human; settings: TAZ siRNA, TGFβ, 12 days
Method: MCF7 Tet.OFF cells were grown in the presence (+Dox, RUNX2 negative) or absence (−Dox, RUNX2 positive) of doxycycline for 3 days. Cells were then scraped and counted. 60,000 cells were plated in each well of a 6-well ultra-low attachment plate (Corning; 3471) in Promocell Basal Medium (Promocell; c-22211) complete with Supplement Mix (Promocell; c-39216). Cells were then treated with or without 2 ng/mL TGFβ (R&D Systems; 240-B-002). After growth for 10-15 days, wells were photographed and tumorsphere diameters were measured from photographic images (mm). Colony diameters were calculated using the formula: (L+W)/2. Representative photographs were obtained at 4× magnification. […] For TAZ siRNA knockdown experiments, TAZ siRNA was transfected (as below) into MCF7 Tet.OFF cells and 24 hr later cells were scraped and placed into suspension as described above. Small-Interfering RNA (siRNA) pool targeting RUNX1, RUNX2, and non-targeting control were purchased from Dharmacon, and transfected into cells using RNAiMAX Reagent (Invitrogen). Western blot analysis was performed 48 hrs after transfection.

TAZ = assay: siRNA mediated knockdown of TAZ (Western blot); type: cell-based, human; settings: MCF7 Tet.OFF cells, low or high RUNX2
Method: TAZ knockdown was performed in MCF7 Tet.OFF cells using Custom 23 mer desalted siRNA oligonucleotides from Sigma and a Universal Scrambled Negative Control siRNA Duplex from Origene (Catalog No. SR30004): TAZ siRNA #1: 5′-GACA […]-3′ (SEQ ID NO: 1), TAZ siRNA #2: 5′-[…] GAACAUU-3′ (SEQ ID NO: 2) and TAZ siRNA #3: 5′-[…]-3′ (SEQ ID NO: 3). Briefly, MCF7 Tet.OFF cells were grown in the absence or presence of doxycycline for 3 days and then transfected with corresponding siRNA's using Lipofectamine-2000 (Life Technologies). RIPA extracts were obtained 48 hr post transfection and total protein was analyzed by Western blot (see above) and probed for TAZ protein expression. Protein levels were normalized to actin and quantified using NIH Image-J software.

RUNX2 = RUNX2 (Homo sapiens, UniProt Q13950); assay: Western blot of RUNX2, RUNX1, CBF-β; type: cell-based; parameters: endogenous in cells; host or cells: MDA-231, MDA-468; settings: MDA-468 and MCF7 cells, MG132 10 μM alone, 18 hrs
Method: Whole cell lysates extracted in RIPA buffer (Upstate) were separated on 4-12% gradient SDS-PAGE and transferred to nitrocellulose membrane. The blots were incubated with specific antibodies for each protein overnight at 4° C. After antibody washing, the blots were reacted with their respective secondary antibody and detected with enhanced chemiluminescence reagents (Millipore) according to the supplier's protocol. Antibodies for proteins were purchased as below. RUNX1, RUNX2, CBF-β, ubiquitin and caspase-3 (Cell Signaling Technologies), S451-p-RUNX2 (Bioss Gentaur, Belgium), RUNX3 and Glut-1 (Millipore, Calif.), β-actin and RUNX2 antibody for IHC (Sigma-Aldrich), and Ki-67 for IHC (Bethyl Laboratories, Inc, TX).

Lats1/2 = Lats1/2 phosphorylation (Hippo signaling); type: cell-based, human; settings: HCC1428 cells, rsE-Cad 24 hr
Method: In FIG. 22A HCC1428 luminal BC cells that express E-Cadherin were treated with recombinant soluble E-Cadherin (rsE-Cad) for 24 hr and total cell extracts were analyzed for phosphorylation of the Lats1/2 tumor suppressors. Phospho.Lats1/2 and total Lats1/2 levels declined with rsE-Cad treatment consistent with TAZ translocation to the nucleus, where it acts as an oncogene with RUNX2. […] MCF7 cells expressing RUNX2 (Tet.OFF) were treated with compound 1 drug for 24 hours and total cell extracts were analyzed for phosphp.Lats1/2, total Lats1/2, and RUNX2 expression.

Sequence of RUNX2 (Q13950 whole entry): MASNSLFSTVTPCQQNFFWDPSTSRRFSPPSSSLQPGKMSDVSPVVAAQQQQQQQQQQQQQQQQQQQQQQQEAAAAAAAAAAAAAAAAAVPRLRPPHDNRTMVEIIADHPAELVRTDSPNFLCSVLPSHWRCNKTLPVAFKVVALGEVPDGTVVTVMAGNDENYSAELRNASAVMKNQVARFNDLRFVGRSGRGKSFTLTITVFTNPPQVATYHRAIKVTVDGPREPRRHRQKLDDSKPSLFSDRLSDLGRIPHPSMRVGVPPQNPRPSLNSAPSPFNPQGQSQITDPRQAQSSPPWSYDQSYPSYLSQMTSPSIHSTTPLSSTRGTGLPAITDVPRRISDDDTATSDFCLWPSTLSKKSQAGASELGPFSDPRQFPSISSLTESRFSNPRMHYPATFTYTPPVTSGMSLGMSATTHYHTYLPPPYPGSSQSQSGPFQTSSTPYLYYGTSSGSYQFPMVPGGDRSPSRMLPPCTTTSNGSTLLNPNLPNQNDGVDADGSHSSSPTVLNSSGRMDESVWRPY

Molecule	tumorsphere size (MCF7 RUNX2 Tet.OFF cells; RUNX2 negative cells)	tumorsphere size (MCF7 RUNX2 Tet.OFF cells; RUNX2 positive cells)	TAZ knockdown to levels of control (scrambled siRNA) (TAZ)	RUNX2 protein stability (RUNX2)	phosphorylation of the Lats1/2 tumor suppressors (Lats1/2)
5′-AAGCCUAGCUCGUGGCGGAUU-3′ (listed as RNA, chemistry not given here) [TAZ siRNA #3]	no significant effect	6.05±3.12 mm	30%	–	–
5′-GACA UGAGAUCCAUCACUAUU-3′ (GACAUGAGAUCCAUCACUAUU; listed as RNA, chemistry not given here) [TAZ siRNA #1]	4.85±2.11 mm	4.43±1.47 mm	70-80%	–	–
5′-GGACAAACACCCAU GAACAUU-3′ (GGACAAACACCCAUGAACAUU; listed as RNA, chemistry not given here) [TAZ siRNA #2]	5.16±1.91 mm	5.35±2.42 mm	50-70%	–	–
CC(C)C[C@@H](C=O)NC(=O)[C@H](CC(C)C)NC(=O)[C@H](CC(C)C)NC(=O)OCc1ccccc1 [MG132, reference compound] (Cbz-Leu-Leu-Leu-aldehyde)	–	–	–	increased	–
recombinant soluble E-Cadherin: recombinant soluble E-Cadherin (rsE-Cad) (protein, UniProt P12830 155-709, looked up, extracellular domain) extracellular domain: DWVIPPISCPENEKGPFPKNLVQIKSNKDKEGKVFYSITGQGADTPPVGVFIIERETGWLKVTEPLDRERIATYTLFSHAVSSNGNAVEDPMEILITVTDQNDNKPEFTQEVFKGSVMEGALPGTSVMEVTATDADDDVNTYNAAIAYTILSQDPELPDKNMFTINRNTGVISVVTTGLDRESFPTYTLVVQAADLQGEGLSTTATAVITVTDTNDNPPIFNPTTYKGQVPENEANVVITTLKVTDADAPNTPAWEAVYTILNDDGGQFVVTTNPVNNDGILKTAKGLDFEAKQQYILHVAVTNVVPFEVSLTTSTATVTVDVLDVNEAPIFVPPEKRVEVSEDFGVGQEITSYTAQEPDTFMEQKITYRIWRDTANWLEINPDTGAISTRAELDREDFEHVKNSTYTALIIATDNGSPVATGTGTLLLILSDVNDNAPIPEPRTIFFCERNPKPQVINIIDADLPPNTSPFTAELTHGASANWTIQYNDPTQESIILKPKMALEVGDYKINLKLMDNQNKDQVTTLEVSVCDCEGAAGVCRKAQPVEAGLQIPA	–	–	–	–	decline in phosphorylation
